In patent US20240251792A1, “WEED CONTROL METHOD” (SYNGENTA CROP PROTECTION AG, priority 2021, published 2024):
Like-named read-outs stand apart in the source and are kept apart here.

Experiments:
Assay type in all cases: in vivo
LOLPE [1] = test: Biological efficacy, pre-emergence glasshouse test (Table 2); conditions: 1000 g/ha, after 12 days
How it was run: (§1)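 Test species were sown in unsterilised compost and kept under controlled glasshouse conditions (24/16 °C, 14 h light, 65% humidity). Plants received a 1000 g/ha spray either 1 day (pre-emergence) or 7 days (post-emergence) after sowing. Twelve days later, injury was rated on a 0–100 scale.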

DIGSA [2] = test: as above; conditions: 1000 g/ha, after 12 days
How it was run: as §1

AMARE [3] = test: as above; conditions: 1000 g/ha, after 12 days
How it was run: as §1

STEME [4] = test: as above; conditions: 1000 g/ha, after 12 days
How it was run: as §1

LOLPE [5] = test: Biological efficacy, post-emergence glasshouse test (Table 2); conditions: 1000 g/ha, after 12 days
How it was run: as §1

DIGSA [6] = test: as above; conditions: 1000 g/ha, after 12 days
How it was run: as §1

AMARE [7] = test: as above; conditions: 1000 g/ha, after 12 days
How it was run: as §1

STEME [8] = test: as above; conditions: 1000 g/ha, after 12 days
How it was run: as §1

weeds and/or crops = test: Post-emergence biological efficacy (Table 4); conditions: 1000 g/ha, evaluated after 13 days; for pest or weed control at 1000 g/ha: 312 h
How it was run: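 Weeds and crops were grown 14 days in a glasshouse, then sprayed post-emergence with compound formulated in acetone/F50 and diluted in 0.2% Genapol X080 to the final dose. Damage was scored after 13 days on a 0–100 scale, where 100 is total damage.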

LOLPE [9] = test: Pre-emergence biological efficacy (Table 3); conditions: 1000 g/ha, after 13 days
How it was run: (§2)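 Sown pots, 1 d glasshouse (24/19 °C, 16 h light), pre-emergence spray of compound from 50 g/l AMA formulation diluted in 0.2% Genapol X080. Grown at 24/18 °C, 15 h light, 50% humidity, watered twice daily; scored 0–100 damage at 13 d.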

SETFA = test: Pre-emergence biological efficacy (Table 3); conditions: 1000 g/ha, after 13 days
How it was run: as §2

AMARE [10] = test: Pre-emergence biological efficacy (Table 3); conditions: 1000 g/ha, after 13 days
How it was run: as §2

ECHCG = test: Pre-emergence biological efficacy (Table 3); conditions: 1000 g/ha, after 13 days
How it was run: as §2

IPOHE = test: Pre-emergence biological efficacy (Table 3); conditions: 1000 g/ha, after 13 days
How it was run: as §2

SOLNI = test: Pre-emergence biological efficacy (Table 3); conditions: 1000 g/ha, after 13 days
How it was run: as §2

SMILES | score (100=total damage to plant, 0=no damage to plant) (LOLPE [1]) | score (100=total damage to plant, 0=no damage to plant) (DIGSA [2]) | score (100=total damage to plant, 0=no damage to plant) (AMARE [3]) | score (100=total damage to plant, 0=no damage to plant) (STEME [4]) | score (100=total damage to plant, 0=no damage to plant) (LOLPE [5]) | score (100=total damage to plant, 0=no damage to plant) (DIGSA [6]) | score (100=total damage to plant, 0=no damage to plant) (AMARE [7]) | score (100=total damage to plant, 0=no damage to plant) (STEME [8]) | damage to plant LOLPE (100=total damage; 0=no damage) (weeds and/or crops) | damage to plant SOLNI (100=total damage; 0=no damage) (weeds and/or crops) | evaluation (100=total damage to plant; 0=no damage to plant) (LOLPE [9]) | evaluation (100=total damage to plant; 0=no damage to plant) (SOLNI) | further results
O=C(O)C(F)(F)c1cccc2ccccc12 [Compound 1-397, 2,2-Difluoro-2-(1-naphthyl)acetic acid] | 70 | 30 | 90 | 90 | 0 | 0 | 70 | 80 | 10 | 80 | 40 | 100 | pest or weed control at 1000 g/ha (weeds and/or crops; Amaranthus retroflexus, AMARE, read-out: damage to plant AMARE (100=total damage; 0=no damage)): 70%; pest or weed control at 1000 g/ha (weeds and/or crops; Echinochloa crus-galli, ECHCG, read-out: damage to plant ECHCG (100=total damage; 0=no damage)): 20%; pest or weed control at 1000 g/ha (weeds and/or crops; Ipomoea hederacea, IPOHE, read-out: damage to plant IPOHE (100=total damage; 0=no damage)): 70%; pest or weed control at 1000 g/ha (weeds and/or crops; Setaria faberi, SETFA, read-out: damage to plant SETFA (100=total damage; 0=no damage)): 10%; pest or weed control at 1000 g/ha (SETFA; Setaria faberi, 312 h, read-out: evaluation (100=total damage to plant; 0=no damage to plant)): 20%; pest or weed control at 1000 g/ha (AMARE [10]; Amaranthus retroflexus, 312 h, read-out: evaluation (100=total damage to plant; 0=no damage to plant)): 80%; pest or weed control at 1000 g/ha (ECHCG; Echinochloa crus-galli, 312 h, read-out: evaluation (100=total damage to plant; 0=no damage to plant)): 60%; pest or weed control at 1000 g/ha (IPOHE; Ipomoea hederacea, 312 h, read-out: evaluation (100=total damage to plant; 0=no damage to plant)): 80%
COc1ccccc1C(F)(F)C(=O)O [Compound 1-9] | 0 | 0 | 80 | 60 | 0 | 0 | 90 | 80 | 0 | 60 | 20 | 90 | damage to plant AMARE (100=total damage; 0=no damage) (weeds and/or crops; AMARE): 70; damage to plant ECHCG (100=total damage; 0=no damage) (weeds and/or crops; ECHCG): 0; damage to plant IPOHE (100=total damage; 0=no damage) (weeds and/or crops; IPOHE): 60; damage to plant SETFA (100=total damage; 0=no damage) (weeds and/or crops; SETFA): 0; evaluation (100=total damage to plant; 0=no damage to plant) (SETFA): 20; evaluation (100=total damage to plant; 0=no damage to plant) (AMARE [10]): 70; evaluation (100=total damage to plant; 0=no damage to plant) (ECHCG): 20; evaluation (100=total damage to plant; 0=no damage to plant) (IPOHE): 60
